Measured values: the NIST ThermoML archive (doi:10.1016/j.tca.2008.12.007)

Assay: xn = mol fraction of the nth substance listed
Conditions: 101 kPa, Liquid, Vibrating tube method

C1CCCNCC1 [azacycloheptane] + O
mass density [kg/m3]
Conditions | 333.15 K | 343.15 K | 348.15 K | 353.15 K
x2 = 0.0199 | – | 837.91 | 833.38 | 828.84
x2 = 0.0395 | – | 838.84 | 834.3 | 829.73
x2 = 0.0821 | – | 841.28 | 836.69 | 832.07
x2 = 0.1198 | – | 843.4 | 838.79 | 834.14
x2 = 0.1594 | – | 845.7 | 841.06 | 836.38
x2 = 0.1994 | – | 848.34 | 843.67 | 838.95
x2 = 0.2498 | – | 851.65 | 846.94 | 842.2
x2 = 0.3 | – | 855.03 | 850.31 | 845.54
x2 = 0.3499 | – | 858.87 | 854.12 | 849.32
x2 = 0.4 | – | 862.76 | 857.99 | 853.18
x2 = 0.4529 | – | 867.39 | 862.6 | 857.76
x2 = 0.5008 | – | 871.87 | 867.08 | 862.24
x2 = 0.5041 | – | 871.87 | 867.07 | 862.22
x2 = 0.5508 | – | 876.55 | 871.76 | 866.92
x2 = 0.5992 | 891.02 | 881.58 | 876.78 | 871.95
x2 = 0.65 | 896.87 | 887.5 | 882.74 | 877.92
x2 = 0.699 | 903.03 | 893.76 | 889.04 | 884.27
x2 = 0.7496 | 910.24 | 901.13 | 896.49 | 891.79
x2 = 0.7994 | 918.61 | 909.74 | 905.21 | 900.62
x2 = 0.8398 | 926.57 | 917.97 | 913.57 | 909.09
x2 = 0.8799 | 936.13 | 927.91 | 923.42 | 918.78
x2 = 0.92 | 948.28 | 942.9 | 938.07 | 933.73
x2 = 0.9599 | 964.06 | 958.32 | 954.48 | –
x2 = 0.96 | 964.12 | 958.4 | 954.96 | –
x2 = 0.9699 | 968.88 | 963.25 | – | –
x2 = 0.98 | 974.02 | 967.74 | 964.39 | 961.1
